Laboratory results as given in patent US12286437B2, “Cardiac sarcomere inhibitors” (Cytokinetics, Inc., priority 2021, dated 2025).

How the values were obtained:
[1] = system: Rat Cardiac Contractility; assay: Echocardiography assessment of acute pharmacodynamic effect in rat cardiac contractility (fractional shortening); format: in vivo, Sprague Dawley rats; conditions: oral gavage, plasma concentration vs fractional shortening, 1 and 4 h post-dose
Procedure: Assessment of in vivo cardiac function by echocardiography was performed in male Sprague Dawley rats under isoflurane (1-3%) anesthesia. 2-D M-mode images of the left ventricle were acquired in the parasternal long-axis view before, during, and after administration of compounds. In vivo fractional shortening was determined by M-mode image analysis with the following calculation: ((End diastolic diameter−end systolic diameter)[…] end diastolic diameter×100). Three pre-dose baseline M-Mode images were taken at 1-minute intervals prior to compound administration. Compounds were formulated in a 0.5% hydroxypropyl methylcellulose 2910 (HPMC 2910): 0.1% Tween 80 suspension and delivered as a single dose (5 mL/kg) by oral gavage. At one and four hours post-dose, rats were lightly anesthetized for M-mode echocardiography measurement. Concurrent with echocardiography measurements, blood samples were taken to determine the corresponding compound plasma concentrations. The resulting plasma concentrations were used to estimate the IC50 and IC10 values, which is the concentration at which fractional shortening is 50% and 10% of the pre-dose baseline contractility, respectively.

[2] = Dog single dose pharmacokinetics; format: in vivo, beagle dogs; conditions: male, beagle, plasma, IV; for half-life: read-out: t½ (converted); for Vd: read-out: Vss
Procedure: Non-naïve male beagle dogs (8 months-3 years of age, body weight 8-13 kg) were used in this study. All animals for IV administration had free access to food and water; all animals for PO were fasted overnight prior to dosing and were fed approximately 6 hours after dosing. For the animals in PO group, pentagastrin (6.0 μg/kg, i.m.) was administrated 20 minutes before dosing PO formulation and 1.5 hours after the first pentagastrin dosing. The dosing volume was 0.024 mL/kg, the concentration was 250 μg/mL in DMSO/1 N NaOH/PBS. 10 mL of 0.001 N HCl was used to wash the gavage catheter for each animal. The IV dose solution was prepared in 10% DMA/50% PG/40% HPβCD solution (40% w/v aqueous HPβCD) at a concentration of 1.0 mg/mL. The oral dose suspension was prepared by suspending the compound in 0.5% HPMC/0.1% Tween 80 in distilled water at a concentration of 0.2 mg/mL. Concentrations of IV and PO doses were measured at the end of the study. PK parameters were calculated using the nominal dose values if the measured values were within 20% of the nominal values. Blood samples were collected by venipuncture of peripheral veins except the dosing vein at pre-dose, 5 15, 30 min, 1, 2, 4, 6, 8, 24 and 48 h post-dose. Blood samples were centrifuged and resultant plasma was frozen for bioanalysis. Plasma samples were stored at −80° C. before analysis. Plasma samples were analyzed for compound concentrations using the LC/MS/MS method. Briefly, a 50 μL aliquot of each plasma sample was mixed with 100 μL of acetonitrile that contained an internal standard. The mixture was vortexed and centrifuged. Ten (10) μL of the resulting solution was injected onto a reverse-phase C18 column and the resultant peaks detected on a LC/MS/MS equipped with a turbo ionspray ionization source. Sample concentrations below the limit of quantification (BLQ) were treated as zero for PK calculations. PK parameters were estimated from individual animals using noncompartmental analysis of the concentration-time data (Phoenix WinNonLin software, version 64; Pharsight, Mountain View, CA). The elimination rate constant (k) was calculated as the absolute value of the slope of the linear regression of logarithm (log) of the concentration versus time for the last three data points of the concentration-time profiles. Apparent elimination half-life (t1/2) values were calculated as ln(2)/k. Area under the concentration-time curve (AUC) values were estimated using linear trapezoidal method. AUCt values were calculated from the dosing time to the last measurable concentration. AUC∞ values were calculated as the sum of the corresponding AUCt and the ratio of the last detectable concentration divided by k. Plasma clearance (CL) was calculated from Dose/AUC∞. Mean resident time extrapolated to infinity (MRT∞) was estimated by moment analysis. Vss was calculated from MRT∞×CL. Maximum concentration (Cmax) and time to reach Cmax (tmax) were recorded as observed. As this was a cross-over study, bioavailability was calculated dAUC∞,po/dAUC∞,iv×100% where dAUC was the dose normalized AUC value from the same animal given IV and PO dose. Data for compounds tested are provided in Table D. Compounds tested were prepared in accordance with the synthetic procedures described herein.

[3] = Projected single-dose CL and Vss values in humans (allometric scaling of mouse, rat, dog, monkey IV PK); conditions: human, projected by allometric scaling from single-dose IV PK
Procedure: Allometric scaling for the prediction of human Clearance and Volume of Distribution was based on interspecies simple allometric scaling of mouse, rat, dog, and cynomolgus monkey intravenous pharmacokinetic parameters (Boxenbaum, J Pharmacokinet Biopharm 10:201-27, 1982). Prediction of human CL was performed by extrapolating pre-clinical species' plasma intravenous clearance. The ‘rule of exponents’ (Mahmood & Balian, Life Sci 59:579-85, 1996) was examined in this prediction, where it has been proposed that, when the exponent of simple allometry lies between […] and 0.99, a correction factor based on Maximum Life Span (MLP) of this species can be applied and, when the exponent of simple allometry is greater than 1.0, a correction factor based on Brain Weight (BrW) can be applied, or a protein binding correction can be applied when available. In a similar manner, simple allometric scaling was employed to predict human Volume of Distribution. This method has been used successfully for varied drugs (Ward & Smith, Drug Metab Dispos 32:612-19, 2004; McGinnity et al., Curr Drug Metab 8:463-79, 2007).

Row | Compound | IC50 [1] | half-life [2] | Projected CL [3] | Projected Vss [3] | Projected t½ [3] | clearance [2] | Vd [2] | IC10 [1]
1 | C[C@H]1CC[C@H](N2CC(=O)N(Cc3ccc(F)c(F)c3)C3(CN(C(N)=O)C3)C2=O)CC1 [Compound 5, 5-(3,4-difluorobenzyl)-8-((1r,4r)-4-methylcyclohexyl)-6,9-dioxo-2,5,8-triazaspiro[3.5]nonane-2-carboxamide] | 4440 nM |  |  |  |  |  |  | 1170 nM
2 | C[C@H]1CC[C@H](N2CC(=O)N(Cc3ccc(F)c(F)c3)C3(CN(C=O)C3)C2=O)CC1 [Compound 4, 5-(3,4-difluorobenzyl)-8-((1r,4r)-4-methylcyclohexyl)-6,9-dioxo-2,5,8-triazaspiro[3.5]nonane-2-carbaldehyde] | 2760 nM | 9.54 h | 1.84 mL/min/kg | 4.51 L/kg | 28.3 h |  |  | 284 nM
3 | C[C@H]1CC[C@H](N2CC(=O)N(Cc3ccc(Cl)cc3)C3(CN(C(N)=O)C3)C2=O)CC1 [Compound 18, 5-(4-chlorobenzyl)-8-((1r,4r)-4-methylcyclohexyl)-6,9-dioxo-2,5,8-triazaspiro[3.5]nonane-2-carboxamide] | 2840 nM | 5.8 h | 3.3 mL/min/kg | 7.1 L/kg | 25 h | 18.8 mL/min/kg | 5.73 L/kg | 892 nM

These reach a lower IC50 [1]. Values come first.

Row | IC50 [1] | half-life [2] | Projected CL [3] | Projected Vss [3] | Projected t½ [3] | clearance [2] | Vd [2] | Compound | IC10 [1]
4 | 2250 nM |  |  |  |  |  |  | CC(C)N1CC(=O)N(Cc2ccc(Cl)c(F)c2)C2(CN(c3cccnn3)C2)C1=O [Compound 8, 5-(4-chloro-3-fluorobenzyl)-8-isopropyl-2-(pyridazin-3-yl)-2,5,8-triazaspiro[3.5]nonane-6,9-dione] | 508 nM
5 | 1170 nM | 6.44 h | 4.66 mL/min/kg | 3.43 L/kg | 8.51 h | 7.45 mL/min/kg | 2.85 L/kg | CC(C)N1CC(=O)N(Cc2ccc(C(F)(F)F)cc2)C2(CN(c3cccnn3)C2)C1=O [Compound 13, 8-isopropyl-2-(pyridazin-3-yl)-5-(4-(trifluoromethyl)benzyl)-2,5,8-triazaspiro[3.5]nonane-6,9-dione] | 317 nM
